How the values were obtained:
[1] = target: T1, H1N1 (A/WSN/1933) hemagglutinin (HA) protein (Influenza A virus, UniProt P03454); assay: biochemical; type: binding, influenza virus H1N1 (A/WSN/1933)
T1 construct: purchased Sino Biological Inc. (Beijing, China)

[2] = target: H5N1 (A/Hong Kong/483/97) hemagglutinin (HA) protein (Influenza A virus, UniProt Q77XR4); type: binding, influenza virus H5N1 (A/Hong Kong/483/97); details: pH 7.4
HA = details: in our previous work; cited from earlier work

CC1(C)CC[C@]2(C(=O)O)CC[C@]3(C)C(=CC[C@@H]4[C@@]5(C)CC[C@H](O)C(C)(C)[C@@H]5CC[C@]43C)[C@@H]2C1 [OA, oleanolic acid]
Kd [1]: 31.1 µM

Sialylglycopeptide [SGP]
thermodynamic dissociation constant KD [2]: no affinity
affinity to HA (SPR) (HA): no affinity

CC(=O)N[C@@H]1[C@@H](O)[C@H](O[C@@H]2O[C@H](CO)[C@@H](O[C@@H]3O[C@H](CO[C@H]4O[C@H](CO)[C@@H](O)[C@H](O)[C@@H]4O[C@@H]4O[C@H](CO)[C@@H](O[C@@H]5O[C@H](CO[C@]6(C(=O)O)C[C@H](O)[C@@H](NC(C)=O)[C@H]([C@H](O)[C@H](O)CO)O6)[C@H](O)[C@H](O)[C@H]5O)[C@H](O)[C@H]4NC(C)=O)[C@@H](O)[C@H](O[C@H]4O[C@H](CO)[C@@H](O)[C@H](O)[C@@H]4O[C@@H]4O[C@H](CO)[C@@H](O[C@@H]5O[C@H](CO[C@]6(C(=O)O)C[C@H](O)[C@@H](NC(C)=O)[C@H]([C@H](O)[C@H](O)CO)O6)[C@H](O)[C@H](O)[C@H]5O)[C@H](O)[C@H]4NC(C)=O)[C@@H]3O)[C@H](O)[C@H]2NC(C)=O)[C@@H](CO)O[C@H]1NC(=O)C[C@H](NC(=O)CCc1cn(CCOCCOCCOCCOCCOCCOC(=O)[C@]23CCC(C)(C)C[C@H]2C2=CC[C@@H]4[C@@]5(C)CC[C@H](O)C(C)(C)[C@@H]5CC[C@@]4(C)[C@]2(C)CC3)nn1)C(=O)O [SCT-Asn-OA]
Kd [1]: 11.2 µM

CC(=O)N[C@@H]1[C@@H](O)[C@H](O[C@@H]2O[C@H](CO)[C@@H](O[C@@H]3O[C@H](CO[C@H]4O[C@H](CO)[C@@H](O)[C@H](O)[C@@H]4O[C@@H]4O[C@H](CO)[C@@H](O[C@@H]5O[C@H](CO[C@]6(C(=O)O)C[C@H](O)[C@@H](NC(C)=O)[C@H]([C@H](O)[C@H](O)CO)O6)[C@H](O)[C@H](O)[C@H]5O)[C@H](O)[C@H]4NC(C)=O)[C@@H](O)[C@H](O[C@H]4O[C@H](CO)[C@@H](O)[C@H](O)[C@@H]4O[C@@H]4O[C@H](CO)[C@@H](O[C@@H]5O[C@H](CO[C@]6(C(=O)O)C[C@H](O)[C@@H](NC(C)=O)[C@H]([C@H](O)[C@H](O)CO)O6)[C@H](O)[C@H](O)[C@H]5O)[C@H](O)[C@H]4NC(C)=O)[C@@H]3O)[C@H](O)[C@H]2NC(C)=O)[C@@H](CO)O[C@H]1NC(=O)C[C@H](NC(=O)CCc1cn(CCOCCOCCOCCOCCOCCOC(=O)[C@]23CC[C@@H](C)[C@H](C)[C@H]2C2=CC[C@@H]4[C@@]5(C)CC[C@H](O)C(C)(C)[C@@H]5CC[C@@]4(C)[C@]2(C)CC3)nn1)C(=O)O [SCT-Asn-UA]
Kd [1]: 289 µM

CC1(C)[C@@H](O)CC[C@]2(C)[C@H]3C(=O)C=C4[C@@H]5C[C@@](C)(C(=O)O)CC[C@]5(C)CC[C@@]4(C)[C@]3(C)CC[C@@H]12 [GA, glycyrrhetinic acid]
thermodynamic dissociation constant KD [2]: no significant affinity
Kd [1]: 584 µM

C[C@H]1[C@H](C)CC[C@]2(C(=O)O)CC[C@]3(C)C(=CC[C@@H]4[C@@]5(C)CC[C@H](O)C(C)(C)[C@@H]5CC[C@]43C)[C@H]12 [UA, ursolic acid]
thermodynamic dissociation constant KD [2]: no significant affinity
Kd [1]: 137 µM

CC(=O)N[C@@H]1[C@@H](O)[C@H](O[C@@H]2O[C@H](CO)[C@@H](O[C@@H]3O[C@H](CO[C@H]4O[C@H](CO)[C@@H](O)[C@H](O)[C@@H]4O[C@@H]4O[C@H](CO)[C@@H](O[C@@H]5O[C@H](CO[C@]6(C(=O)O)C[C@H](O)[C@@H](NC(C)=O)[C@H]([C@H](O)[C@H](O)CO)O6)[C@H](O)[C@H](O)[C@H]5O)[C@H](O)[C@H]4NC(C)=O)[C@@H](O)[C@H](O[C@H]4O[C@H](CO)[C@@H](O)[C@H](O)[C@@H]4O[C@@H]4O[C@H](CO)[C@@H](O[C@@H]5O[C@H](CO[C@]6(C(=O)O)C[C@H](O)[C@@H](NC(C)=O)[C@H]([C@H](O)[C@H](O)CO)O6)[C@H](O)[C@H](O)[C@H]5O)[C@H](O)[C@H]4NC(C)=O)[C@@H]3O)[C@H](O)[C@H]2NC(C)=O)[C@@H](CO)O[C@H]1NC(=O)C[C@H](NC(=O)CCc1cn(CCOCCOCCOCCOCCOCCOC(=O)[C@@]2(C)CC[C@]3(C)CC[C@]4(C)C(=CC(=O)[C@@H]5[C@@]6(C)CC[C@H](O)C(C)(C)[C@@H]6CC[C@]54C)[C@@H]3C2)nn1)C(=O)O [SCT-Asn-GA]
Kd [1]: 16.4 µM

C=C(C)[C@@H]1CC[C@]2(C(=O)OCCOCCOCCOCCOCCOCCn3cc(CCC(=O)N[C@@H](CC(=O)N[C@@H]4O[C@H](CO)[C@@H](O[C@@H]5O[C@H](CO)[C@@H](O[C@@H]6O[C@H](CO[C@H]7O[C@H](CO)[C@@H](O)[C@H](O)[C@@H]7O[C@@H]7O[C@H](CO)[C@@H](O[C@@H]8O[C@H](CO[C@]9(C(=O)O)C[C@H](O)[C@@H](NC(C)=O)[C@H]([C@H](O)[C@H](O)CO)O9)[C@H](O)[C@H](O)[C@H]8O)[C@H](O)[C@H]7NC(C)=O)[C@@H](O)[C@H](O[C@H]7O[C@H](CO)[C@@H](O)[C@H](O)[C@@H]7O[C@@H]7O[C@H](CO)[C@@H](O[C@@H]8O[C@H](CO[C@]9(C(=O)O)C[C@H](O)[C@@H](NC(C)=O)[C@H]([C@H](O)[C@H](O)CO)O9)[C@H](O)[C@H](O)[C@H]8O)[C@H](O)[C@H]7NC(C)=O)[C@@H]6O)[C@H](O)[C@H]5NC(C)=O)[C@H](O)[C@H]4NC(C)=O)C(=O)O)nn3)CC[C@]3(C)[C@H](CC[C@@H]4[C@@]5(C)CC[C@H](O)C(C)(C)[C@@H]5CC[C@]43C)[C@@H]12 [SCT-Asn-BA]
Kd [1]: 6.89 µM

C=C(C)[C@@H]1CC[C@]2(C(=O)O)CC[C@]3(C)[C@H](CC[C@@H]4[C@@]5(C)CC[C@H](O)C(C)(C)[C@@H]5CC[C@]43C)[C@@H]12 [BA, betulinic acid]
thermodynamic dissociation constant KD [2]: no significant affinity
thermodynamic dissociation constant KD ([1]; pH 7.4): no affinity

— article PMC7915185 (Molecules, 2021)
